From patent US10668040B2, “Treatment of urea cycle disorders in neonates and infants” (Horizon Therapeutics, LLC, priority 2017, dated 2020)

Tests used:
Format in all cases: in vivo, human
[1] = Pharmacokinetics of HPN-100 and NaPBA, study HPN-100-012; conditions: HPN-100-012 (N = 15)
Excerpt: The pharmacokinetics of the short term studies can be summarized as follows. Mean exposure levels of HPN-100 metabolites PBA, PAA, and PAGN after doses of HPN-100 and NaPBA with meals (TID) in pediatric (29 days to 17 years of age) UCD patients in HPN-100-005 and HPN-100-012 studies are summarized below. The mean exposure to PBA, the parent metabolite, and mean exposure to PAGN, the terminal metabolite, show no systematic variation across age groups, while PAA exposure tended to decrease with increasing age, a finding consistent with those from population PK modeling which indicate that the rate of clearance/metabolism of PAA varies directly with body size. While systemic metabolite exposure, assessed as peak plasma concentration (Cmax) or AUC, is generally similar for HPN-100 and NaPBA, the minimum concentration (Cmin-ss) was higher—and/or percent-fluctuation less—for plasma PAGN, a finding consistent with slower gastrointestinal absorption of PBA when administered orally as HPN-100.

[2] = HPN-100-009 (Example 2): plasma PBA, PAA, PAGN PK on first full day of RAVICTI dosing; conditions: Age 2 Months to <2 Years, mean (SD)
Excerpt: Plasma Phenylbutyrate/Phenylbutyric Acid (PB A) 1) Maximum Plasma Concentration (Cmax); 2) Minimum Plasma Concentration (Cmin); 3) Area Under the Curve from Time Zero to the Time of Last Quantifiable Concentration (AUC[0-Last]); and 4) Time to Cmax (Tmax) on the First Full Day of RAVICTI® Dosing.
End point description. Pharmacokinetic (PK) Evaluable Population: all subjects from the safety population with individual concentration-time profiles that allow computation of meaningful PK parameter values. End point timeframe: Hour 0 and between 4 and 6 hours, 8 hours, and between 12 and 24 hours after the first dose of the day on Day 1 for stable subjects and on Day 2 for subjects in HAC.
Plasma Phenylacetate/Phenylacetic Acid (PAA) 1) Maximum Plasma Concentration (Cmax); 2) Minimum Plasma Concentration (Cmin); 3) Area Under the Curve from Time Zero to the Time of Last Quantifiable Concentration (AUC[0-Last]); and 4) Time to Cmax (Tmax) on the First Full Day of RAVICTI® Dosing.
End point description. PK Evaluable Population: all subjects from the safety population with individual concentration-time profiles that allow computation of meaningful PK parameter values. End point timeframe: Hour 0 and between 4 and 6 hours, 8 hours, and between 12 and 24 hours after the first dose of the day on Day 1 for stable subjects and on Day 2 for subjects in HAC.
Plasma Phenylacetylglutamine (PAGN) 1) Maximum Plasma Concentration (Cmax); 2) Minimum Plasma Concentration (Cmin); 3) Area Under the Curve from Time Zero to the Time of Last Quantifiable Concentration (AUC[0-Last]); and 4) Time to Cmax (Tmax) on the First Full Day of RAVICTI® Dosing.

[3] = Example 3: urinary PAA concentrations (first full day and up to end of trial)
Method: Urinary PAA Concentrations on the First Full Day of RAVICTI Dosing
PK Evaluable Population: all subjects from the safety population with individual concentration-time profiles that allow computation of meaningful PK parameter values. Measurements were taken at hour 0, between 0.5 and 1.5 hours, between 1.5 and 2.5 hours, between 4 and 6 hours, between 7.5 and 8.5 hours, and between 12 and 24 hours after the first dose of the day on day 1 for stable subjects and on day 2 for subjects in HAC.
Urinary PAA Concentrations Up to End of Trial
PK Evaluable Population: all subjects from the safety population with individual concentration-time profiles that allow computation of meaningful PK parameter values. Measurements were taken at day 7, month 1, month 2, month 3, month 4, month 5, month 6, month 9, month 12, month 15, month 18, month 24, and at the end of the trial.

[4] = test system: pediatric patients with UCDs; test: HPN-100-012 switch-over study: 24-hour blood ammonia on HPN-100 vs NaPBA
Excerpt: HPN-100-012 was an open-label, fixed sequence, switch-over study of the safety, PK and efficacy of HPN-100 compared to NaPBA in patients with UCDs, with a 12-month safety extension part. […] After review of all the safety data by the DSMB, 8 additional subjects were enrolled in the study after the switch-over phase was completed.

[5] = original scale, non-inferiority upper margin 1.25

O=C(CCCc1ccccc1)OCC(COC(=O)CCCc1ccccc1)OC(=O)CCCc1ccccc1 [RAVICTI, benzenebutanoic acid, 1′,1″-(1,2,3-propanetriyl) ester]
Plasma PAA % Fluctuation ([1]; mean (CV %)): 2141 (145.0) % | Plasma PAA AUC0-24 ([1]; mean (CV %)): 1096 (214.0) μg · h/mL | Plasma PAA CLss/F ([1]; mean (CV %)): 25538 (116.8) mL/min | Plasma PAA Cmax-ss ([1]; mean (CV %)): 84.7 (148.3) μg/mL | Plasma PAA Cmin-ss ([1]; mean (CV %)): 26.1 (360.8) μg/mL | Plasma PAGN % Fluctuation ([1]; mean (CV %)): 907 (116.7) % | Plasma PAGN AUC0-24 ([1]; mean (CV %)): 1131 (71.2) μg · h/mL | Plasma PAGN CLss/F ([1]; mean (CV %)): 10830 (85.6) mL/min | Plasma PAGN Cmax-ss ([1]; mean (CV %)): 85.5 (53.7) μg/mL | Plasma PAGN Cmin-ss ([1]; mean (CV %)): 19.9 (173.4) μg/mL | Plasma PBA % Fluctuation ([1]; mean (CV %)): 1781 (84.6) % | Plasma PBA AUC0-24 ([1]; mean (CV %)): 255 (54.5) μg · h/mL | Plasma PBA CLss/F ([1]; mean (CV %)): 22610 (48.6) mL/min | Plasma PBA Cmax-ss ([1]; mean (CV %)): 36.8 (59.0) μg/mL | Plasma PBA Cmin-ss ([1]; mean (CV %)): 0.750 (192.7) μg/mL | Plasma PAA Tmax-ss ([1]; median): 8.00 h | Plasma PAGN Tmax-ss ([1]; median): 7.92 h | Plasma PBA Tmax-ss ([1]; median): 8.00 h | Plasma PAA AUC[0-last] [2]: 246.126 (±238.547) (μg * hr/mL) | Plasma PAA Cmax [2]: 36.52 (±31.784) (μg/mL) | Plasma PAA Cmin [2]: 4.197 (±6.434) (μg/mL) | Plasma PAA Tmax [2]: 7.422 (±7.351) (hrs) | Plasma PAGN AUC[0-last] [2]: 583.835 (±285.241) (μg * hr/mL) | Plasma PAGN Cmax [2]: 62.45 (±27.281) (μg/mL) | Plasma PAGN Cmin [2]: 20.62 (±14.529) (μg/mL) | Plasma PAGN Tmax [2]: 6.573 (±7.181) (hrs) | Plasma PBA AUC[0-last] [2]: 280.936 (±293.553) (μg * hr/mL) | Plasma PBA Cmax [2]: 42.44 (±36.715) (μg/mL) | Plasma PBA Cmin [2]: 1.697 (±2.254) (μg/mL) | Plasma PBA Tmax [2]: 8.383 (±4.564) (hrs) | Urinary PAA concentration ([3]; Age 0 to <2 months, Day 7): 23.7 (±31.2); μg/mL | Urinary PAA concentration ([3]; Age 0 to <2 months, End of trial): 11.6 (±9.0); μg/mL | Urinary PAA concentration ([3]; Age 0 to <2 months, Month 1): 14.6 (±17.2); μg/mL | Urinary PAA concentration ([3]; Age 0 to <2 months, Month 2): 12.3 (±13.3); μg/mL | Urinary PAA concentration ([3]; Age 0 to <2 months, Month 3): 14.4 (±10.7); μg/mL | Urinary PAA concentration ([3]; Age 0 to <2 months, Month 4): 6.4 (±7.1); μg/mL | Urinary PAA concentration ([3]; Age 0 to <2 months, Month 5): 13.2 (±14.0); μg/mL | Urinary PAA concentration ([3]; Age 0 to <2 months, Month 6): 5.5 (±00000); μg/mL | Urinary PAA concentration ([3]; Age 0 to <2 months, Month 9): 11.8 (±8.5); μg/mL | Urinary PAA concentration ([3]; Age 0 to <2 months, Month 12): 6.0 (±3.8); μg/mL | Urinary PAA concentration ([3]; Age 0 to <2 months, Month 15): 4.9 (±0.3); μg/mL | Urinary PAA concentration ([3]; Age 0 to <2 months, first full day, 0.5 to 1.5 hours): 46.2 (±58.6); μg/mL | Urinary PAA concentration ([3]; Age 0 to <2 months, first full day, 1.5 to 2.5 hours): 62.5 (±42.8), μg/mL | Urinary PAA concentration ([3]; Age 0 to <2 months, first full day, 4 to 6 hours): 34.6 (±56.2); μg/mL | Urinary PAA concentration ([3]; Age 0 to <2 months, first full day, 7.5 to 8.5 hours): 22.8 (±25.3); μg/mL | Urinary PAA concentration ([3]; Age 0 to <2 months, first full day, 12 to 24 hours): 35.2 (±51.0); μg/mL | Urinary PAA concentration ([3]; Age 0 to <2 months, first full day, Hour 0): 11.1 (±10.4); μg/mL | Urinary PAA concentration ([3]; Age 2 months to <2 years, Day 7): 5.82 (±2.21); μg/mL | Urinary PAA concentration ([3]; Age 2 months to <2 years, End of trial): 7.0 (±5.16); μg/mL | Urinary PAA concentration ([3]; Age 2 months to <2 years, Month 1): 4.44 (±4.61); μg/mL | Urinary PAA concentration ([3]; Age 2 months to <2 years, Month 2): 3.69 (±1.82); μg/mL | Urinary PAA concentration ([3]; Age 2 months to <2 years, Month 3): 4.65 (±0.49); μg/mL | Urinary PAA concentration ([3]; Age 2 months to <2 years, Month 4): 7.14 (±00000); μg/mL | Urinary PAA concentration ([3]; Age 2 months to <2 years, Month 5): 3.27 (±1.96); μg/mL | Urinary PAA concentration ([3]; Age 2 months to <2 years, Month 6): 1.59 (±00000); μg/mL | Urinary PAA concentration ([3]; Age 2 months to <2 years, Month 9): 4.10 (±1.65); μg/mL | Urinary PAA concentration ([3]; Age 2 months to <2 years, Month 15): 2.04 (±00000); μg/mL | Urinary PAA concentration ([3]; Age 2 months to <2 years, Month 18): 1.64 (±00000); μg/mL | Urinary PAA concentration ([3]; Age 2 months to <2 years, first full day, 0.5 to 1.5 hours): 6.50 (±3.39); μg/mL | Urinary PAA concentration ([3]; Age 2 months to <2 years, first full day, 1.5 to 2.5 hours): 7.29 (±4.10); μg/mL | Urinary PAA concentration ([3]; Age 2 months to <2 years, first full day, 4 to 6 hours): 2.60 (±2.18); μg/mL | Urinary PAA concentration ([3]; Age 2 months to <2 years, first full day, 7.5 to 8.5 hours): 4.48 (±4.38); μg/mL | Urinary PAA concentration ([3]; Age 2 months to <2 years, first full day, 12 to 24 hours): 4.31 (±2.33); μg/mL | Urinary PAA concentration ([3]; Age 2 months to <2 years, first full day, Hour 0): 18.78 (±27.33); μg/mL | Mean blood ammonia ([4]; 8-h time point, HPN-100 Day 10): 23.20 µmol/L | Mean blood ammonia ([4]; 12-hour time point, HPN-100 Day 10, NaPBA Day 1): 28.24 µmol/L | upper 90% CI, blood ammonia 24-hour AUC HPN-100 vs NaPBA [4, 5]: 1.002 | upper 95% CI, blood ammonia 24-hour AUC HPN-100 vs NaPBA [4, 5]: 1.055 | median difference between treatments in ammonia AUC (HPN-100 vs NaPBA) ([4]; pediatric UCD patients 29 days to <6 years): -37.84 µmol·h/L | 24-hour AUC for blood ammonia, HPN-100 (Day 10) compared with NaPBA (Day 1) ([4]; pediatric UCD patients 29 days to <6 years, non-inferiority upper margin 1.25): non-inferior to NaPBA | Mean blood ammonia levels following an overnight fast ([4]; pre-dose and 24 hours post dose): normal
